Test results published in PubChem BioAssay AID1996.
Values after ≈ are worked out from the molar mass of the structure shown.

settings: buffer; pH 7.4; 200.0 µM

Row | solubility kinetic | Compound
1 | > 0.05 mg/mL | Cc1ccc(S(=O)(=O)NCCNC(=O)c2ccc(C)nc2)cc1
2 | > 0.041 mg/mL | O=C(Nc1nonc1-c1ccc(F)cc1)c1ccco1
3 | 0.0027 mg/mL (≈ 9.66 µM) | Cc1ccccc1CC(=O)NC1CCCc2ccccc21 (stereo not given)
4 | > 0.0479 mg/mL | O=C(CN1C(=O)NC2(CCCCC2)C1=O)Nc1ccc(F)cc1
5 | > 0.0479 mg/mL | Cn1c(SCC(=O)Nc2sccc2C#N)nnc1C1CC1
6 | > 0.0505 mg/mL | CCCCNC(=O)CCc1nc2cccnc2n1Cc1ccccc1
7 | > 0.0478 mg/mL | O=C(NCC(c1ccco1)N1CCOCC1)c1ccc(F)cc1 (stereo not given)
8 | > 0.0509 mg/mL | CCC(C)C(=O)Nc1ccc(S(=O)(=O)Nc2nccs2)cc1 (stereo not given)
9 | > 0.048 mg/mL | O=C(CN1C(=O)NC2NC(=O)NC21)N/N=C/c1ccc(F)cc1 (stereo not given)
10 | 0.0487 mg/mL (≈ 138 µM) | CCCCC1(C)NC(=O)N(CC(=O)Nc2ccc(Cl)cc2C)C1=O (stereo not given)
11 | > 0.0425 mg/mL | O=C(O)C1CCN(C(=O)c2cccc3ccccc23)CC1
12 | < 0.0007 mg/mL | CCOC(=O)c1ccccc1CN1C(=O)c2ccccc2S1(=O)=O
13 | > 0.0577 mg/mL | COc1ccc(C2(C)NC(=O)N(CC(=O)NC3(C#N)CCCCC3)C2=O)cc1 (stereo not given)
14 | > 0.0464 mg/mL | COc1ccc(/C=C/C(=O)NC(CCSC)C(=O)O)cc1 (stereo not given)
15 | 0.0062 mg/mL (≈ 18.5 µM) | CS(=O)(=O)Nc1ccc(C(=O)Nc2ccc3c(c2)OCO3)cc1
16 | > 0.0354 mg/mL | CCOc1ccc(N=C2NC(=O)CS2)cc1
17 | 0.0122 mg/mL (≈ 42.7 µM) | O=C1Cc2ccccc2C(=O)N1Cc1cccc(Cl)c1
18 | 0.0016 mg/mL (≈ 4.89 µM) | CCCOc1ccc(C(=O)NC2CCSc3ccccc32)cc1 (stereo not given)
19 | > 0.0759 mg/mL | COc1ccccc1N1CCN(C(=O)c2cccc(S(=O)(=O)Nc3ccccc3F)c2)CC1.Cl
20 | > 0.0521 mg/mL | COC(=O)Cc1c(O)ccn(CCc2ccc(OC)c(OC)c2)c1=O
21 | 0.0534 mg/mL (≈ 132 µM) | CN(CC(=O)Nc1ccc(F)c(F)c1F)C(=O)c1ccc(N2CCCC2=O)cc1
22 | > 0.045 mg/mL | O=C(/C=C/c1ccc(Cl)cc1)NC1CCS(=O)(=O)C1 (stereo not given)
23 | > 0.0434 mg/mL | CCOC(=O)Cn1nc(C)n(-c2c(C)cccc2C)c1=O
24 | 0.0339 mg/mL (≈ 110 µM) | Cc1ccc(CC2CC(=O)N(c3cc(C)ccc3C)C2=O)cc1 (stereo not given)

The remaining lines, values behind:

Row | Compound | solubility kinetic
25 | COCCNC(=O)c1ccc2c(c1)CCN2S(C)(=O)=O | 0.0447 mg/mL (≈ 150 µM)
26 | CCCCN(C)C(=O)c1cc2cc([N+](=O)[O-])cc(OC)c2oc1=O | > 0.0501 mg/mL
27 | Fc1cc(F)nc(NCc2ccccc2)n1 | 0.0122 mg/mL (≈ 55.2 µM)
28 | Cc1ccc(N2C(=O)CN(Cc3ccccc3)C2=S)cc1C | 0.0003 mg/mL (≈ 0.966 µM)
29 | CCN1CCN(C(=O)NC2CCCCC2)CC1.O=C(O)C(=O)O | > 0.0494 mg/mL
30 | COc1ccc(Cl)cc1C(=O)NCc1ccco1 | 0.0318 mg/mL (≈ 120 µM)
31 | O=C(Cc1ccccc1)Nc1cccc(NC(=O)c2ccccc2)c1 | 0.0015 mg/mL (≈ 4.54 µM)
32 | Cc1ccc(CN2CCN(c3ccccc3)CC2)o1.O=C(O)C(=O)O | 0.0491 mg/mL
33 | CCCC(CNC(=O)COC(=O)C1=NNC(=O)CC1)c1ccc(Cl)cc1Cl (stereo not given) | > 0.0621 mg/mL
34 | CCC(C)NCCCOc1ccc(C)cc1OC (stereo not given) | 0.0351 mg/mL (≈ 140 µM)
35 | Cc1nc(NC(=O)COC(=O)C2CC3CCCC(C2)C3=O)c(Cl)cc1Cl (stereo not given) | > 0.0599 mg/mL
36 | CC1CC(C)CN(CC(=O)N2CCOCC2)C1.Cl (stereo not given) | > 0.0415 mg/mL
37 | N#CCN1CCN(CC(=O)c2ccc(Br)cc2)CC1 | 0.0473 mg/mL (≈ 147 µM)
38 | CC(=O)c1csc(Nc2ccccc2Cl)n1 | 0.0328 mg/mL (≈ 130 µM)
39 | COc1ccccc1OCCNC(=O)c1ccco1 | 0.0334 mg/mL (≈ 128 µM)
40 | Cc1cccc(OCCCCn2c(CO)nc3ccccc32)c1 | 0.0314 mg/mL (≈ 101 µM)
41 | O=C(NCCO)/C(=C/c1ccco1)NC(=O)c1ccco1 | 0.0433 mg/mL (≈ 149 µM)
42 | Cc1cc(C(=O)NCc2ccc3c(c2)OCO3)ccc1[N+](=O)[O-] | 0.0387 mg/mL (≈ 123 µM)

Row | Compound | solubility kinetic
43 | O=c1cc(-c2ccccc2)nc(/C=C/c2ccccc2)[nH]1 | 0.0004 mg/mL (≈ 1.46 µM)
44 | CN1CCN(Cc2cc3c(cc2[N+](=O)[O-])OCO3)CC1 | 0.0383 mg/mL (≈ 137 µM)
45 | O=C1Cc2ccccc2C(c2ccc(Cl)cc2Cl)N1 (stereo not given) | 0.0031 mg/mL (≈ 10.6 µM)
46 | CCN(CC)C(=O)CSc1nc(-c2ccccc2)cc(=O)[nH]1 | > 0.0476 mg/mL
47 | ONC(=Nc1ccccc1Cl)c1ccccc1Cl | > 0.0422 mg/mL
48 | CC(Oc1cccc(Br)c1)C(=O)Nc1cccc(S(=O)(=O)N2CCOCC2)c1 (stereo not given) | 0.0162 mg/mL (≈ 34.5 µM)
49 | Cc1ccc(S(=O)(=O)NCCCn2ccnc2)cc1C(=O)NC(C)C | > 0.0547 mg/mL
50 | CC(C)(C)c1csc(Sc2ncccc2[N+](=O)[O-])n1 | 0.0017 mg/mL (≈ 5.76 µM)
51 | Cl.c1ccc(-c2ccc(CNC3CC3)cc2)cc1 | 0.0379 mg/mL
52 | O=C(COC(=O)c1ccc(Cl)nc1)NCCC1=CCCCC1 | 0.0366 mg/mL (≈ 113 µM)
53 | Cc1ccc2nsnc2c1S(=O)(=O)N1CCN(C)CC1 | 0.0455 mg/mL (≈ 146 µM)
54 | O=C(Nc1cccc2c1CCCC2)c1ccccc1Br | < 0.0007 mg/mL
55 | c1ccc(N2CCN(c3nc4ccccc4[nH]3)CC2)nc1 | 0.0417 mg/mL (≈ 149 µM)
56 | Cc1cc(OC(=O)N(C)C)nc(-c2ccc(C)c(Cl)c2)n1 | 0.0225 mg/mL (≈ 73.6 µM)
57 | O=C(O)C1Cc2ccccc2CN1C(=O)CCl (stereo not given) | > 0.0381 mg/mL
58 | COc1ccccc1C(=O)NCc1ccco1 | > 0.0347 mg/mL
59 | CN(Cc1ccccc1Cl)C(=O)c1cnccc1C(F)(F)F | > 0.0493 mg/mL
60 | CCOc1ccccc1NC(=S)NC(=O)CCc1ccccc1 | < 0.0004 mg/mL
